The values below come from patent US20230391772A1, “METHODS AND COMPOSITIONS FOR TARGETED PROTEIN DEGRADATION” (Ranok Therapeutics (Hangzhou) Co. Ltd., priority 2020, published 2023).

One assay deals with T1, HSP90a protein (Homo sapiens, UniProt P07900).
T1 construct: purchased BPS Bioscience 50298
Nature of the assay: HSP90α-binding fluorescent polarization (FP) assay, BODIPY-labeled RNK04010 probe. Particulars: FP competition with RNK04010 (BODIPY-labeled), 5 nM, 300 min at 25° C. The gist of the method:
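Displacement of a 5 nM fluorescent HSP90 ligand from the N-terminal HSP90a domain by FP. Incubation ran at 25° C: 120 min for the FITC-geldanamycin tracer, 300 min for the BODIPY-conjugated triazolone RNK04010.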

The test system of assay [1] is NCI-H23 human non-small cell lung cancer. Nature of the assay: NCI-H23 CCK-8 proliferation assay. It counts as cell-based. The settings on record: NCI-H23 cells, 72 hr. The method, then: The following cancer cell lines were employed: BT-474 human breast carcinoma (ATCC, #HTB-20); MIA PaCa-2 human pancreatic carcinoma [2 copies KRAS(G12C)](ATCC, #CRL-1420); NCI-H23 human non-small cell lung cancer [1 copy KRAS(G12C)](ATCC, #CRL-5800); NCI-H358 human non-small cell lung cancer [1 copy KRAS(G12C)](ATCC, #CRL-5807); LU65A human lung carcinoma (Pharmaron, Beijing, China). Cell lines were cultured essentially according to ATCC and Pharmaron recommendations.
Cancer Cell Line Proliferation (CCK-8) Assays
3-fold serial dilutions of each test compound were prepared ranging from 20 μM to 1.02 nM.
% Inhibition=100−(D−B)/(S−B)*100%. • S: Absorbance of cells treated with DMSO • D: Absorbance of compound-treated cells • B: Absorbance of medium with DMSO without cells

Assay [2] concerns NCI-H358 human non-small cell lung cancer. Nature of the assay: NCI-H358 CCK-8 proliferation assay. Type of assay: cell-based. Particulars: NCI-H358 cells, 72 hr. In a few lines: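 Percent inhibition derived from CCK-8 optical signal, normalised between DMSO-only cells (0%) and cell-free medium containing DMSO as background. Cells: MIA PaCa-2 carrying 2 KRAS(G12C) copies; NCI-H358, NCI-H23 carrying 1 copy apiece. Concentrations spanned 1.02 nM–20 μM in threefold increments.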
On the technique in general: Tetrazolium assays rely on reduction of a dye to a coloured formazan, in cell work by metabolically active cells.

Each structure is given as a SMILES string.

Broadly, the IC50 is the concentration needed to halve the response being measured. Usually EC50 stands for the midpoint of the concentration-response curve. As for `CCc1cc(-c2nnc(C(N)=O)n2-c2ccc(CN3CCN(CC4CCN(C(=O)CCNc5nc6c(c(N7CCN(C(C)=O)CC7)n5)CCN(c5cc(O)cc7ccccc57)C6)CC4)CC3)cc2)c(O)cc1O` [Compound 69, 4-(4-((4-((1-(3-((4-(4-acetylpiperazin-1-yl)-7-(3-hydroxynaphthalen-1-yl)-5,6,7,8-tetrahydropyrido[3,4-d]pyrimidin-2-yl)amino)propanoyl)piperidin-4-yl)methyl)piperazin-1-yl)methyl)phenyl)-5-(5-ethyl-2,4-dihydroxyphenyl)-4H-1,2,4-triazole-3-carboxamide, trifluoroacetic acid], the IC50 at HSP90a protein is < 0.1 µM. Further, the figures for the EC50 in assay [1] and in assay [2] were > 1 µM and 0.1 to 1 µM, respectively.
Turning to `C=CC(=O)N1CCN(c2nc(NCCC(=O)N3CCC(CN4CCN(Cc5ccc(-n6c(C(N)=O)nnc6-c6cc(CC)c(O)cc6O)cc5)CC4)CC3)nc3c2CCN(c2cc(O)cc4ccccc24)C3)CC1` [Compound 71, 4-(4-((4-((1-(3-((4-(4-acryloylpiperazin-1-yl)-7-(3-hydroxynaphthalen-1-yl)-5,6,7,8-tetrahydropyrido[3,4-d]pyrimidin-2-yl)amino)propanoyl)piperidin-4-yl)methyl)piperazin-1-yl)methyl)phenyl)-5-(5-ethyl-2,4-dihydroxyphenyl)-4H-1,2,4-triazole-3-carboxamide], the 50% inhibitory concentration (IC50) at HSP90a protein is < 0.1 µM. Besides, the values for the 50% effective concentration (EC50) in assay [1] and in assay [2] were > 1 µM and 0.1 to 1 µM, respectively.
The like results for `CCC(=O)N1CCN(c2nc(NCCC(=O)N3CCC(CN4CCN(Cc5ccc(-n6c(C(N)=O)nnc6-c6cc(CC)c(O)cc6O)cc5)CC4)CC3)nc3c2CCN(c2cc(O)cc4ccccc24)C3)CC1` [Compound 75, 5-(5-ethyl-2,4-dihydroxyphenyl)-4-(4-((4-((1-(3-((7-(3-hydroxynaphthalen-1-yl)-4-(4-propionylpiperazin-1-yl)-5,6,7,8-tetrahydropyrido[3,4-d]pyrimidin-2-yl)amino)propanoyl)piperidin-4-yl)methyl)piperazin-1-yl)methyl)phenyl)-4H-1,2,4-triazole-3-carboxamide, trifluoroacetic acid] were, in that order, < 0.1 µM, > 1 µM and 0.1 to 1 µM.
As for `C=CC(=O)N1CCN(c2nc(NCCC(=O)N3CCC(CN4CCN(Cc5ccc(-n6c(O)nnc6-c6cc(C(C)C)c(O)cc6O)cc5)CC4)CC3)nc3c2CCN(c2cccc4ccccc24)C3)C[C@H]1CC#N` [Compound 78, (R)-2-(1-acryloyl-4-(2-((3-(4-((4-(4-(3-(2,4-dihydroxy-5-isopropylphenyl)-5-hydroxy-4H-1,2,4-triazol-4-yl)benzyl)piperazin-1-yl)methyl)piperidin-1-yl)-3-oxopropyl)amino)-7-(naphthalen-1-yl)-5,6,7,8-tetrahydropyrido[3,4-d]pyrimidin-4-yl)piperazin-2-yl)acetonitrile], the IC50 on HSP90a protein was < 0.1 µM. The EC50 in assay [1] and in assay [2] was 0.1 to 1 µM in each case.
Regarding `C=CC(=O)N1CCN(c2nc(NCCC(=O)N3CCC(CN4CCN(Cc5ccc(-n6c(O)nnc6-c6cc(C(C)C)c(O)cc6O)cc5)CC4)CC3)nc3c2CCN(c2cccc4cccc(Cl)c24)C3)C[C@H]1CC#N` [Compound 87, (R)-2-(1-acryloyl-4-(7-(8-chloronaphthalen-1-yl)-2-((3-(4-((4-(4-(3-(2,4-dihydroxy-5-isopropylphenyl)-5-hydroxy-4H-1,2,4-triazol-4-yl)benzyl)piperazin-1-yl)methyl)piperidin-1-yl)-3-oxopropyl)amino)-5,6,7,8-tetrahydropyrido[3,4-d]pyrimidin-4-yl)piperazin-2-yl)acetonitrile, trifluoroacetic acid], at HSP90a protein, the IC50 is 0.1 to 1 µM. Further, the EC50 in assay [1] and in assay [2] was 0.1 to 1 µM in each case.
